Measurements published in patent publication US4634766A, “1,4-diaza-phenothiazines” (Merck Frosst Canada, Inc., priority 1984, dated 1987).
In brackets after ≈: the same amount, converted by molar mass.

Tests used:
asthmatic rats = test: Asthmatic Rat Assay: duration of dyspnoea after egg albumin aerosol challenge; assay type: in vivo; conditions: p.o.
Excerpt: Rats were obtained from an inbred line of asthmatic rats. Both female and male rats from 200 to 300 g were used.
Egg albumin (EA), grade V, crystallized and lyophilized, was obtained from Sigma Chemical Co., St. Louis. Bordetella pertussis vaccine, containing 30×10^9 killed bacteria per ml was obtained from the Institut Armand-Frappier, Laval des Rapides, Quebec. Aluminum hydroxide was obtained from the Regis Chemical Company, Chicago.
The challenge and subsequent respiratory recordings were carried out in a clear plastic box with internal dimensions 10×6×4 inches. The top of the box was removable; in use, it was held firmly in place by four clamps and an airtight seal was maintained by a soft rubber gasket. […] A Fleisch No. 0000 pneumotachograph was inserted into one end of the box and coupled to a Grass volumetric pressure transducer (PT5-A) which was then connected to a Beckman Type R Dynograph through appropriate couplers. While aerosolizing the antigen, the outlets were open and the pneumotachograph was isolated from the chamber. The outlets were closed and the pneumotachograph and the chamber were connected during the recording or the respiratory patterns. For challenge, 2 ml of a 3% solution of antigen in saline was placed into each nebulizer and the aerosol was generated with air from a small Potter diaphragm pump operating at 10 psi and a flow of 8 liters/minute.
Rats were sensitized by injecting (s.c.) 1 ml of a suspension containing 1 mg EA and 200 mg aluminum hydroxide in saline. Simultaneously, they received an intraperitoneal (i.p.) injection of 0.5 ml of B. pertussis vaccine. They were used between days 14 and 18 postsensitization. In order to eliminate the serotonin component of the response, rats were pretreated intravenously 5 minutes prior to aerosol challenge with […] methylserzide. Rats were then exposed to an aerosol of 3% EA in saline for exactly 1 minute, then their respiratory profiles were recorded for a further 25-30 minutes. The duration of continuous dyspnoea was measured from the respiratory recordings.
Compounds were generally administered either intraperitoneally 1 hour prior to challenge or orally 11/2 hours prior to challenge. They were either dissolved in dimethylsulfoxide or suspended in 0.1% methocel and 0.5% Tween 80. The volume injected was 2 ml/kg (intraperitoneally) or 10 ml/kg (orally (p.o.)). Prior to oral treatment rats were starved overnight. Their activity was determined in terms of their ability to decrease the duration of symptoms of dyspnoea in comparison with a group of vehicle-treated controls. Usually, a compound was evaluated at a series of doses and an ED50 was determined. This was defined as the dose (mg/kg) which would inhibit the duration of symptoms by 50%.

[1] = system: PAF-induced hyperalgesia in the rat paw; test: PAF-Induced Hyperalgesia Assay; assay type: in vivo, rat (Sprague-Dawley); conditions: 10 mg/kg, i.p.
[2] = system: LTB4 formation in rat polymorphonuclear leukocytes; test: Rat Polymorphonuclear Leukocyte (P.M.N.) Assay: inhibition of LTB4 formation; assay type: cell-based; conditions: A-23187 stimulated rat PMN, LTB4 bioassay, read-out: PMN I50
Procedure: Rats under ether anesthesia were injected (i.p.) with 8 ml of a suspension of sodium caseinate (6 grams in ca. 50 ml water). After 15-24 hours the rats were sacrificed (CO2) and the cells from the peritoneal cavity were recovered by lavage with 20 ml of buffer (Eagles MEM containing 30 mM HEPES adjusted to pH 7.4 with NaOH). The cells were pelleted (350×g,5 min.), resuspended in buffer with vigorous shaking, filtered through lens paper, recentrifuged and finally suspended in buffer at a concentration of […]. A 500 μl aliquot of PMN suspension and test compound were preincubated for 2 minutes at 37° C., followed by the addition of 10 μM A-23187. The suspension was stirred for an additional 4 minutes then bioassayed for LTB4 content by adding an aliquot to a second 500 μl portion of the PMN at 37° C. The LTB4 produced in the first incubation caused aggregation of the second PMN, which was measured as a change in light transmission. The size of the assay aliquot was chosen to give a submaximal transmission change (usually -70%) for the untreated control. The percentage inhibition of LTB4 formation was calculated from the ratio of transmission change in the sample to the transmission change in the compound-free control.

guinea pig trachea = test: Antigen Challenge in vitro Assay: contraction of sensitized tracheal chains by egg albumin; assay type: cell-based; conditions: Cavia porcellus; for inhibition at 3 µg/mL: 3 μg/ml
Procedure: Male guinea pigs weighing 300-350 g were sensitized by injecting (I.P.) 0.5 ml of a suspension containing 0.4 mg of egg albumin (Ovalbumin, Grade V, Sigma Chemical Co.) and 4.0 g aluminum hydroxide in 19.6 ml of saline. Two weeks were permitted for sensitization to occur.
Three sensitized guinea pigs were stunned and exsanguinated. The tracheas were removed, freed of adhering tissue and divided longitudinally by cutting through the cartilaginous tissue directly opposite the muscle insertion. Each opened trachea was then transected between every second cartilage. Four of the cut sections were tied together, end to end, in a series with No. 7 silk thread ensuring that the tracheal muscles were all in the same vertical plane. Thus, each chain consisted of tissue from three different animals.
The chain so formed was then suspended under 1 g of tension (by silk ties at each end) in a 20 ml organ bath containing 10 ml of modified^1 Krebs-Henseleit buffer solution gassed with 95% O2 and 5% CO2 at 37° C. Mepyramine (0.55 μg/ml) and indomethacin (2.67 μg/ml) were added to the buffer to avoid the contribution of histamine receptors and cyclooxygenase products to the contraction. To record responses one end of the tracheal chain was attached to a Gould-Statham UC-2 force displacement transducer which was connected to a Beckman Type R-dynograph.The preparations were allowed to equilibrate for one hour during which time the tissues were automatically washed (10 ml volume displacement) every 6 minutes.
After the equilibration period the tissues were primed with methacholine (3 μg/ml; 1.5×10^-5 M), washed and allowed to recover to baseline. The tissues were treated again with a second dose of methacholine, washed, allowed to return to baseline and washed for an additional hour.
Two chains were used as a control. These were incubated in a concentration of egg albumin sufficient to induce an average contraction of 50-80% of the methacholine response.
Each compound to be tested was added to two other baths (at a final concentration in each bath of 10 μg/ml) 15 minutes prior to challenging the fresh chains with egg albumin.
The response of the challenged tissue was expressed as a percentage of the methacholine maximum. The percentage inhibition for each compound was then calculated. Compounds which at 10 μg/ml (final conc.) inhibited the egg albumin response by 50% or more were retested at a lower concentration.

| Structure (SMILES) | IC50 [2] | inhibition at 3 µg/mL (guinea pig trachea) | other results |
| --- | --- | --- | --- |
| c1ccc2c(c1)Nc1nccnc1S2 [drawing 27] | – | – | Asthmatic Rat % Inhibition (asthmatic rats; 5 mg/kg): 30%; PAF % Inhibition [1]: 70% |
| COc1cc2c(cc1Cl)N(C)c1nccnc1S2 | 5 µg/mL (≈ 17.9 µM) | – | – |
| CCOC(=O)CN1c2ccccc2Sc2nccnc21 | – | 22% | – |
| c1ccc2c(c1)Nc1nccnc1O2 | 0.5 to 1 µg/mL (≈ 2.7 to 5.4 µM) | 35% | – |
| COc1ccc2c(c1)[S+]([O-])c1nccnc1N2C (centres unmarked) | – | – | Asthmatic Rat % Inhibition (asthmatic rats; 3 mg/kg): 25% |
| CN1c2ccc(O)cc2Sc2nccnc21 [drawing 21] | 1 to 5 µg/mL (≈ 4.32 to 21.6 µM) | 71% | – |
| CN1c2ccc(O)cc2Sc2nccnc21 [drawing 30] | – | – | Asthmatic Rat % Inhibition (asthmatic rats; 3 mg/kg): 39% |
| c1ccc2c(c1)Nc1nccnc1S2 [drawing 17] | 5 µg/mL (≈ 24.8 µM) | – | inhibition at 10 µg/mL (guinea pig trachea; 10 μg/ml): 85% |
| CC(=O)N1c2ccccc2Sc2nccnc21 | – | 14% | – |
| CN1c2cc(Cl)c(O)cc2Sc2nccnc21 [drawing 18] | 0.2 µg/mL (≈ 0.753 µM) | – | – |
| CN1c2ccccc2Sc2nccnc21 | 1 to 5 µg/mL (≈ 4.65 to 23.2 µM) | – | – |
| CN1c2cc(Cl)c(O)cc2Sc2nccnc21 [drawing 28] | – | – | Asthmatic Rat % Inhibition (asthmatic rats; 5 mg/kg): 47% |
| COc1cc2c(cc1Cl)Nc1nccnc1S2 | 1 µg/mL (≈ 3.76 µM) | – | – |
| COc1ccc2c(c1)Sc1nccnc1N2 | 0.05 to 0.5 µg/mL (≈ 0.216 to 2.16 µM) | 42% | – |
| COc1ccc2c(c1)Sc1nccnc1N2C | – | – | Asthmatic Rat % Inhibition (asthmatic rats; 3 mg/kg): 43% |
